Here are results for one molecule from patent EP1134289A1, “METHOD FOR SCREENING CD14 AGONIST OR ANTAGONIST” (Takeda Chemical Industries, Ltd., priority 1998, dated 2000).

This assay deals with CD14 expression. Description: Induction of CD14 expression in THP-1 cells (FITC-labeled anti-CD14 antibody, flow cytometry). It is filed as cell-based, human. As to conditions: VD3 about 100 nM, 3 days, 10,000 cells, 40 where no VD3 was added. The procedure: Human monocytic THP-1 cells (purchased from Dainippon Pharmaceutical Co., Ltd.) were used as cells. As a culture medium, RPMI medium 1640 with L-glutamine (RPMI; GIBCO Co.), to which inactivated fetal calf serum (GIBCO Co.) at a concentration of 10% (v/v) and penicillin-streptomycin involving penicillin G sodium and streptomycin sulfate at a concentration of 100 U/ml and 100 µg/ml respectively, were added. For induction of CD14 expression, the cells were suspended in the medium at a content of about 3 × 10^5 cells/ml, to which 1,25-dihydroxyvitamin D3 (VD3; Roussel-UCLAF S.A.) was added at a final concentration of about 100 nM. The cells were incubated in the presence of 5% CO2 in a CO2 incubator MODEL 6200-03 (National Appliance Company) at 37°C for 3 days. The cultured cells were suspended into PBS at 10^6 cells/ml, to which FITC-labeled anti-human CD14 monoclonal antibody clone. UCHM1 (Ancell Co.) was added at a concentration of 1.6 µg/ml. The mixture was incubated at 4°C for 1 hour. The cells were washed 3 times with PBS by centrifugation (1,000 rpm, 3 minutes, 20°C), suspended into 1,000 µl of PBS, and filtered through a tube with a filter (FALCON2235 (Becton Dickinson Co.)). For the resulting cell suspension, the amount of the FITC-labeled anti-CD14 antibody bound to 10,000 cells was determined using a flow cytometer Cyto ACE-300 (JASCO Coporation). […]

On to `C=C1/C(=C\C=C2/CCC[C@]3(C)[C@@H]([C@H](C)CCCC(C)(C)O)CC[C@@H]23)C[C@@H](O)C[C@@H]1O` [VD3, 1,25-dihydroxyvitamin D3], for which the “mean fluorescence intensity (MFI) of bound FITC-labeled anti-CD14 antibody” value was 114.9.
